Test results: article PMC8197369, “Scale-Up Preparation of Crocins I and II from Gardenia jasminoides by a Two-Step Chromatographic Approach and Their Inhibitory Activity Against ATP Citrate Lyase” (Molecules, 2021)

Target: T1, ATP citrate lyase (ACLY) (Homo sapiens, UniProt P53396)
T1 construct: ACLY (His)
T1 sequence (P53396 1-1101): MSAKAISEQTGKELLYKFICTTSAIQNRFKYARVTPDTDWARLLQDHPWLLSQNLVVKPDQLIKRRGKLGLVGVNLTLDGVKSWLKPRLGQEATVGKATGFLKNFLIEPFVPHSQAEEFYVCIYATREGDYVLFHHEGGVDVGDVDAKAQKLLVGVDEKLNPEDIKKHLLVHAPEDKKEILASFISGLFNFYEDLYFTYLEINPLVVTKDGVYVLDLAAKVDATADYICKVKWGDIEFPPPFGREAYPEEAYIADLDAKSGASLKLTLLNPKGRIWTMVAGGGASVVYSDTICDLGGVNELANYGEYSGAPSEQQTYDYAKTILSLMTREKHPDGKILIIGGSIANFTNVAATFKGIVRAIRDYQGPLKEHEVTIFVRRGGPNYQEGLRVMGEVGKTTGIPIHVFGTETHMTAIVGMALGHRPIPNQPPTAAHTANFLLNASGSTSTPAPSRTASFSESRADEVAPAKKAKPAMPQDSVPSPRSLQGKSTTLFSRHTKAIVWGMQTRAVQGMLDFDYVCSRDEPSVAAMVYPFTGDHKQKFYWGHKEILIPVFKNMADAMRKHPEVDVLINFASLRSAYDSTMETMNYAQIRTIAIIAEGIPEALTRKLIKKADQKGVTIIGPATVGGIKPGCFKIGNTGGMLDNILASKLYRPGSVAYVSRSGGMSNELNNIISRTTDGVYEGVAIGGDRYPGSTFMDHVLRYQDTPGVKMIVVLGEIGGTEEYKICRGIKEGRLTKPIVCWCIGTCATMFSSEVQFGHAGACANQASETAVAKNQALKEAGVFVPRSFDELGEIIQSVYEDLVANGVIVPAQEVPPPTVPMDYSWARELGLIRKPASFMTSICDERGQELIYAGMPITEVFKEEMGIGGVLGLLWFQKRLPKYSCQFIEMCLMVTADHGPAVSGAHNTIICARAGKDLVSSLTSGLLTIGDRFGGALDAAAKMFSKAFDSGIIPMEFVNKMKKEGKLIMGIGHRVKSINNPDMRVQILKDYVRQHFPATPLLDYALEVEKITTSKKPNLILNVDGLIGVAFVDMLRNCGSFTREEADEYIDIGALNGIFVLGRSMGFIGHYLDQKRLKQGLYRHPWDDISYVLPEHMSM
Experiment: ADP-Glo ADP-coupled enzymatic assay
Assay type: biochemical

Row | IC50 | Compound
1 | 29.7 ± 7.41 µM | CC(/C=C/C=C(\C)C(=O)O[C@@H]1O[C@H](CO)[C@@H](O)[C@H](O)[C@H]1O)=C\C=C\C=C(C)\C=C\C=C(/C)C(=O)O[C@@H]1O[C@H](CO[C@@H]2O[C@H](CO)[C@@H](O)[C@H](O)[C@H]2O)[C@@H](O)[C@H](O)[C@H]1O [compound 2, crocin II]
2 | 36.3 ± 6.24 µM | CC(/C=C/C=C(\C)C(=O)O[C@@H]1O[C@H](CO[C@@H]2O[C@H](CO)[C@@H](O)[C@H](O)[C@H]2O)[C@@H](O)[C@H](O)[C@H]1O)=C\C=C\C=C(C)\C=C\C=C(/C)C(=O)O[C@@H]1O[C@H](CO[C@@H]2O[C@H](CO)[C@@H](O)[C@H](O)[C@H]2O)[C@@H](O)[C@H](O)[C@H]1O [compound 1, crocin I]
